Source: paper PMC6182381, “Population Pharmacokinetics and Exposure-Response Relationships of Naldemedine” (Pharmaceutical Research, 2018)
Where two headings read alike, the source gives them in different places.

Columns and labels:
[1] = set-up: method as in earlier work; conditions: oral 2 mg [14C]-labeled naldemedine; cited from earlier work
[2] = Population PK analysis of plasma naldemedine concentrations (NONMEM, 2-compartment model); format: in vivo, human; conditions: for AUC: human, plasma, oral
Protocol: A population PK model was developed with pooled naldemedine concentrations from healthy subjects, patients with chronic non-cancer pain and OIC, and cancer patients with OIC as described in Table I. Blood sampling times for PK analysis in each study are shown in Supplemental Table S1. All studies were performed in accordance with the Declaration of Helsinki, the International Conference on Harmonization (ICH) E6 Guidance for Good Clinical Practice and all other applicable regulatory requirements. Study protocols were approved by the responsible institutional review boards. Written informed consent for each clinical study was obtained from all subjects.
Background data available for subjects were summarized and used as candidate covariates: age, body weight, body mass index (BMI), albumin (ALBU), aspartate aminotransferase (AST) and alanine aminotransferase (ALT), total bilirubin (Tbil), and creatinine clearance (CLcr) at baseline as continuous data, and gender (male, female), race/ethnicity (“White” or “non-White”, “Japanese” or “non-Japanese”, “Hispanic or Latino” or “non-Hispanic or non-Latino”), health status (healthy subjects/ Patients with chronic non-cancer pain and OIC/ Cancer patients with OIC), dosing conditions (dosing in the fasted/fed state, with/without concomitant use of P-gp/CYP3A inhibitor/inducer), and formulation (“solution or suspension”, “phase 1 or 2 tablet”, “phase 3 tablet”) as categorical data. Background data at baseline were obtained from observations prior to or on the first day of dosing, or at screening if this value was not available. Categorical age (<65 years or ≥ 65 years) was also used. CLcr was calculated using the Cockcroft-Gault eq. ([12]). Data from the concomitant treatment period in the phase 1 DDI studies [1202 V9218, 1403V921D, and 1502V921E]), in which co-administrations of P-gp/CYP3A inhibitor/inducer (cyclosporine, rifampin, itraconazole, or fluconazole) with naldemedine were designed as the worst case scenario for each inhibitor/inducer (single dose of cyclosporine 600 mg, rifampin 600 mg for 17 days, itraconazole 200 mg for 7 days, fluconazole 200 mg for 7 days), were excluded from the population PK analysis because they were not clinically relevant to the OIC treatment. Food condition was assumed as fasted in phase 2b studies (1107 V9221 and 1108 V9222), in which the date/time of food intake had not been recorded. Food condition was defined as fasted in cases where naldemedine was administered more than 1 h after the food intake in phase 3 studies (1314 V9231, 1315 V9232, 1331 V9236, 1336 V9238, and 1339 V9239).
The bioanalytical methods for determination of concentrations of naldemedine and its metabolites in human plasma were validated with the lower limit of quantification (LLOQ) being 0.01 ng/ml for naldemedine ([11]). Plasma samples were analyzed after solid phase extraction by a liquid chromatography/mass spectrometry/mass spectrometry (LC/MS/MS) method using the positive ion mode and multiple reaction monitoring. All the analytical methods were validated across the calibration range with respect to selectivity, recovery, accuracy, precision, and stability under a variety of conditions.
The population PK analysis was performed by using the non-linear mixed effect modeling software NONMEM (version 7.3, ICON Development Solutions, US), with PREDPP library and NM-TRAN preprocessor ([13]). To support analyses by NONMEM, Perl-speaks-NONMEM (PsN) (version 4.2) and Xpose (version 4.2.1) were used ([14]). The first order conditional estimation with interaction (FOCE-I) method was used for the analysis.
The PK profiles of naldemedine were examined using conventional compartment disposition models with first order absorption based on the PK in healthy volunteers ([11]). To determine the basic structural PK model for naldemedine, 1-, 2- and 3-compartment models with first order absorption were tested. […]

[3] = 1314V9231_1315V9232 (Phase 3), 0.2 mg
[4] = final model, bootstrap estimates

For `CC(C)(NC(=O)C1=C(O)[C@@H]2Oc3c(O)ccc4c3[C@@]23CCN(CC2CC2)[C@H](C4)[C@]3(O)C1)c1nc(-c2ccccc2)no1` [naldemedine], the “total radioactivity excreted in feces” value [1] is given as 35 % of the administered dose, the “total radioactivity excreted in urine” value [1] is given as 57 % of the administered dose and the “Empirical Bayesian-estimated AUCss, Max” value ([2]; 1107V9221 (Phase 2b), 0.1 mg) is given as 13.49 ng·h/mL. For the same compound, the “Empirical Bayesian-estimated AUCss, Min” value ([2]; 1107V9221 (Phase 2b), 0.1 mg) was 7.02 ng·h/mL, the “Empirical Bayesian-estimated AUCss, Max” value ([2]; 1107V9221 (Phase 2b), 0.2 mg) was 51.36 ng·h/mL and the “Empirical Bayesian-estimated AUCss, Min” value ([2]; 1107V9221 (Phase 2b), 0.2 mg) was 12.66 ng·h/mL. For the same compound, the “Empirical Bayesian-estimated AUCss, Max” value ([2]; 1107V9221 (Phase 2b), 0.4 mg) was 74.93 ng·h/mL, the “Empirical Bayesian-estimated AUCss, Min” value ([2]; 1107V9221 (Phase 2b), 0.4 mg) was 25.78 ng·h/mL and the “Empirical Bayesian-estimated AUCss, Max” value [2, 3] was 92.1 ng·h/mL. For the same compound, the “Empirical Bayesian-estimated AUCss, Min” value [2, 3] was 5.669 ng·h/mL, the “Empirical Bayesian-estimated CL/F, Mean” value ([2]; 1314V9231_1315V9232, Age 65 -< 75) was 7.63 L/h and the “Empirical Bayesian-estimated CL/F, Mean” value ([2]; 1314V9231_1315V9232, Age < 65) was 8.89 L/h. The “Empirical Bayesian-estimated CL/F, Mean” value ([2]; 1314V9231_1315V9232, Age >= 65) was 7.61 L/h, the “Empirical Bayesian-estimated CL/F, Mean” value ([2]; 1314V9231_1315V9232, Age >= 75) was 7.54 L/h and the “Empirical Bayesian-estimated CL/F, Mean” value ([2]; 1314V9231_1315V9232, Asian) was 13.1 L/h. For the same compound, the “Empirical Bayesian-estimated CL/F, Mean” value ([2]; 1314V9231_1315V9232, Black) was 7.51 L/h, the “Empirical Bayesian-estimated CL/F, Mean” value ([2]; 1314V9231_1315V9232, Female) was 8.48 L/h and the “Empirical Bayesian-estimated CL/F, Mean” value ([2]; 1314V9231_1315V9232, Male) was 9.08 L/h. The “Empirical Bayesian-estimated CL/F, Mean” value ([2]; 1314V9231_1315V9232, OIC non-Cancer) was 8.73 L/h, the “Empirical Bayesian-estimated CL/F, Mean” value ([2]; 1314V9231_1315V9232, White) was 9.00 L/h and the “Empirical Bayesian-estimated CL/F, Mean” value ([2]; 1314V9231_1315V9232, non-White) was 7.59 L/h. For the same compound, the “Empirical Bayesian-estimated CL/F, Mean” value ([2]; 1314V9231_1315V9232, race Others) was 6.36 L/h, the “Empirical Bayesian-estimated CL/F, Mean” value ([2]; 1331V9236 (cancer patients), Age 65 -< 75) was 7.15 L/h and the “Empirical Bayesian-estimated CL/F, Mean” value ([2]; 1331V9236 (cancer patients), Age < 65) was 7.51 L/h. The “Empirical Bayesian-estimated CL/F, Mean” value ([2]; 1331V9236 (cancer patients), Age >= 65) was 7.15 L/h, the “Empirical Bayesian-estimated CL/F, Mean” value ([2]; 1331V9236 (cancer patients), Age >= 75) was 7.16 L/h and the “Empirical Bayesian-estimated CL/F, Mean” value ([2]; 1331V9236 (cancer patients), Asian) was 7.34 L/h. For the same compound, the “Empirical Bayesian-estimated CL/F, Mean” value ([2]; 1331V9236 (cancer patients), Female) was 6.54 L/h, the “Empirical Bayesian-estimated CL/F, Mean” value ([2]; 1331V9236 (cancer patients), Male) was 7.85 L/h and the “Empirical Bayesian-estimated CL/F, Mean” value ([2]; 1331V9236 (cancer patients), non-White) was 7.34 L/h. For the same compound, the “Empirical Bayesian-estimated CL/F, Mean” value ([2]; 1331V9236, OIC Cancer) was 7.34 L/h, the ALAG ([2]; base model) was 0.195 h and the CL/F ([2]; base model) was 8.20 L/h. For the same compound, the “Inter-individual variability of CL/F” value ([2]; base model) was 40.5 CV%, the “Inter-individual variability of Ka” value ([2]; base model) was 168.2 CV% and the “Inter-individual variability of Q/F” value ([2]; base model) was 50.5 CV%. The “Inter-individual variability of Vc/F” value ([2]; base model) was 38.5 CV%, the “Inter-individual variability of Vp/F” value ([2]; base model) was 37.7 CV% and the “Intra-individual variability, proportional” value ([2]; base model) was 25.6 CV%. For the same compound, the Ka ([2]; base model) was 3.81 h⁻¹, the Q/F ([2]; base model) was 5.02 L/h and the Vc/F ([2]; base model) was 83.6 L. For the same compound, the Vp/F ([2]; base model) was 43.2 L, the AUC ([2]; both sexes, 0.2 mg, reference population, 0.2 mg once daily, read-out: typical AUCss) was 22 ng·h/mL and the “decrease of population predicted AUCss vs reference population” value ([2]; covariates at extreme values) was 25%. For the same compound, the “increase of population predicted AUCss vs reference population” value ([2]; covariates at extreme values) was 76%, the ALAG ([2]; final model) was 0.195 h and the “Inter-individual variability of CL/F” value ([2]; final model) was 37.9 CV%. The “Inter-individual variability of Ka” value ([2]; final model) was 161.2 CV%, the “Inter-individual variability of Q/F” value ([2]; final model) was 46.3 CV% and the “Inter-individual variability of Vc/F” value ([2]; final model) was 25.3 CV%. For the same compound, the “Inter-individual variability of Vp/F” value ([2]; final model) was 36.3 CV%, the “Intra-individual variability, proportional” value ([2]; final model) was 25.7 CV% and the Q/F ([2]; final model) was 4.77 L/h. The “THETA (7), effect of non-Cancer OIC patients on Vc/F” value ([2]; final model) was 1.20, the “THETA (8), effect of Cancer patients with OIC on Vc/F” value ([2]; final model) was 1.27 and the “THETA (9), effect of fed condition on Vc/F” value ([2]; final model) was 1.12. For the same compound, the “THETA (11), exponent of Age/52 on Ka” value ([2]; final model) was −1.16, the Vp/F ([2]; final model) was 41.8 L and the “ALAG, bootstrap median” value [2, 4] was 0.196 h. For the same compound, the “CL/F, THETA (1), bootstrap median” value [2, 4] was 9.15 L/h, the “Inter-individual variability of CL/F, bootstrap median” value [2, 4] was 38.6 CV% and the “Inter-individual variability of Ka, bootstrap median” value [2, 4] was 161.0 CV%. For the same compound, the “Inter-individual variability of Q/F, bootstrap median” value [2, 4] was 47.5 CV%, the “Inter-individual variability of Vc/F, bootstrap median” value [2, 4] was 25.2 CV% and the “Inter-individual variability of Vp/F, bootstrap median” value [2, 4] was 36.2 CV%. For the same compound, the “Intra-individual variability, proportional, bootstrap median” value [2, 4] was 25.5 CV%, the “Ka, THETA (10), bootstrap median” value [2, 4] was 2.90 h⁻¹ and the “Q/F, bootstrap median” value [2, 4] was 4.73 L/h. For the same compound, the “THETA (7), non-Cancer on Vc/F, bootstrap median” value [2, 4] was 1.19, the “THETA (8), Cancer on Vc/F, bootstrap median” value [2, 4] was 1.28 and the “THETA (9), fed condition on Vc/F, bootstrap median” value [2, 4] was 1.12. For the same compound, the “THETA (11), Age on Ka, bootstrap median” value [2, 4] was −1.23, the “Vc/F, THETA (6), bootstrap median” value [2, 4] was 76.0 L and the “Vp/F, bootstrap median” value [2, 4] was 41.6. The “Ka, THETA (10)” value ([2]; final model, age 52) was 2.94 h⁻¹, the “Vc/F, THETA (6)” value ([2]; final model, healthy subjects, body weight 76 kg, fasted) was 75.9 L and the Vc/F ([2]; final model, reference population: 76 kg, non-cancer OIC patients, fasted) was 91.1 L. For the same compound, the “CL/F, THETA (1)” value ([2]; final model, reference: 52-year-old, male, White, CLcr 108 ml/min) was 9.10 L/h, the AUC ([2]; 0.1 mg, 1107V9221 (Phase 2b), 0.1 mg, read-out: Empirical Bayesian-estimated AUCss, Geometric Mean) was 10.2 ng·h/mL and the AUC ([2]; 0.1 mg, 1107V9221 (Phase 2b), 0.1 mg, read-out: Empirical Bayesian-estimated AUCss, Mean) was 10.5 ng·h/mL. It also gave an AUC ([2]; 0.1 mg, 1107V9221 (Phase 2b), 0.1 mg, read-out: Empirical Bayesian-estimated AUCss, Median) of 10.4 ng·h/mL, an AUC ([2]; 0.2 mg, 1107V9221 (Phase 2b), 0.2 mg, read-out: Empirical Bayesian-estimated AUCss, Geometric Mean) of 20.3 ng·h/mL and an AUC ([2]; 0.2 mg, 1107V9221 (Phase 2b), 0.2 mg, read-out: Empirical Bayesian-estimated AUCss, Mean) of 22.1 ng·h/mL. It also gave an AUC ([2]; 0.2 mg, 1107V9221 (Phase 2b), 0.2 mg, read-out: Empirical Bayesian-estimated AUCss, Median) of 20.2 ng·h/mL, an AUC ([2]; 0.2 mg, 1314V9231_1315V9232 (Phase 3), 0.2 mg, read-out: Empirical Bayesian-estimated AUCss, Geometric Mean) of 25.1 ng·h/mL and an AUC ([2]; 0.2 mg, 1314V9231_1315V9232 (Phase 3), 0.2 mg, read-out: Empirical Bayesian-estimated AUCss, Mean) of 27.5 ng·h/mL. The AUC ([2]; 0.2 mg, 1314V9231_1315V9232 (Phase 3), 0.2 mg, read-out: Empirical Bayesian-estimated AUCss, Median) was 24.5 ng·h/mL, the AUC ([2]; 0.4 mg, 1107V9221 (Phase 2b), 0.4 mg, read-out: Empirical Bayesian-estimated AUCss, Geometric Mean) was 41.6 ng·h/mL and the AUC ([2]; 0.4 mg, 1107V9221 (Phase 2b), 0.4 mg, read-out: Empirical Bayesian-estimated AUCss, Mean) was 43.8 ng·h/mL. It also gave an AUC ([2]; 0.4 mg, 1107V9221 (Phase 2b), 0.4 mg, read-out: Empirical Bayesian-estimated AUCss, Median) of 38.2 ng·h/mL.
